Patent US20100311084A1, “METHODS FOR PREDICTING A PATIENT'S RESPONSE TO EGFR INHIBITORS” (PRECISION THERAPEUTICS, INC., priority 2008, published 2010)
Structures can show the parent of a compound that is named as a salt.

Key:
[1] = system: MDA-MB-231; assay: Chemoresponse assay, lapatinib, MDA-MB-231; assay type: cell-based; settings: 72 hours
Experimental: (§1) The chemoresponse assay for lapatinib was developed using four different immortalized cell lines (SK-OV3, BT474, MDA-MB-231, MCF7). In addition to cell lines, the chemoresponse assay was also performed on 55 primary cultures of breast carcinomas. […] Cell lines and specimens were treated with a 10 dose concentration range of lapatinib for 72 hours and stained with DAPI; remaining live cells were counted on an inverted fluorescent microscope.

[2] = system: primary cultures of breast carcinomas; assay: Chemoresponse assay, lapatinib, primary cultures of breast carcinomas; assay type: cell-based, human; settings: 55 primary breast cultures; 72 hours
Experimental: as §1

[3] = system: BT474; assay: Chemoresponse assay, lapatinib, BT474; assay type: cell-based
Experimental: as §1

[4] = system: MCF7; assay: Chemoresponse assay, lapatinib, MCF7; assay type: cell-based; settings: 72 hours
Experimental: as §1

[5] = system: SK-OV3; assay: Chemoresponse assay, lapatinib, SK-OV3; assay type: cell-based
Experimental: as §1

[6] = system: primary cultures of lung cancer; assay: ChemoFx chemoresponse assay, erlotinib, primary cultures of lung cancer; assay type: cell-based, human; settings: 34 lung cancer tumors; 72-hour treatment
Text: Patient tumor specimens: Primary cell cultures were established using tumor specimens procured for research purposes from the following sources: National Disease Research Interchange (Philadelphia, Pa.), Cooperative Human Tissue Network (Philadelphia, Pa.), Forbes Regional Hospital (Monroeville, Pa.), Jameson Hospital (New Castle, Pa.), Saint Barnabas Medical Center (Livingston, N.J.), Hamot Medical Center (Erie, Pa.), and Windber Research Institute (Windber, Pa.). The tumors were removed from the patient at the time of surgery, placed in the supplied 125-mL bottle containing sterile McCoy's shipping medium (Mediatech, Herndon, Va.), and shipped overnight to Precision Therapeutics, Inc. laboratories (Pittsburgh, Pa.).
(§2) Cell lines and tissue specimens were processed and tested with the ChemoFx® assay as described elsewhere. Also see, U.S. Pat. Nos. 5,728,541, 6,900,027, 6,887,680, 6,933,129, 6,416,967, 7,112,415, and 7,314,731; and U.S. application Ser. Nos. 10/399,563, 11/504,098, 11/595,967, 11/713,662, and 11/785,984, all of which are hereby incorporated by reference in their entireties, and especially with regard to tissue processing and cell culturing techniques, and assays. Ten doses of erlotinib were prepared by serial dilution. The same 10-dose concentration range was used for the cell lines and the tissue specimens. For each dose, a cytotoxic index (CI) was calculated according to the following formula: CI=Mean cell countdose x/mean cell countcontrol, which represents the ratio of cells killed as a result of the treatment. Cell counts were the average of 3 replicates at each dose for primary cultures and 9 replicates at each dose for immortalized cell lines. Dose response curves were generated using the CI at each dose. Adjusted areas under the curve (aAUC) were calculated for each dose-response curve as previously described.

[7] = system: H292; assay: ChemoFx chemoresponse assay, erlotinib, H292 cell line; assay type: cell-based, human; settings: Log EC50 by dose number, mean of 3 assays
Experimental: (§3) Three human lung tumor-derived immortalized cell lines were tested in this study: H292, H358, and Calu3 (American Type Culture Collection, Manassas, Va.). These cell lines were seeded at 40,000 cells in T25 flasks (PGC Scientifics, Frederick, Md.) and allowed to grow for one week to approximately 90% confluence.
as §2, with “Dose response curves were generated using the CI at each dose.” left out

[8] = system: Calu3 xenograft; settings: tumor growth inhibition; cited from earlier work
[9] = system: Calu-3; assay: ChemoFx chemoresponse assay, erlotinib, Calu-3 cell line; assay type: cell-based, human; settings: Calu3; Log EC50 by dose number, mean of 3 assays
Experimental: as §3
as §2, with “Dose response curves were generated using the CI at each dose.” left out

[10] = system: H358 xenograft; settings: tumor growth inhibition; cited from earlier work
[11] = system: H292 xenograft; settings: tumor growth inhibition; cited from earlier work
[12] = system: H358; assay: ChemoFx chemoresponse assay, erlotinib, H358 cell line; assay type: cell-based, human; settings: Log EC50 by dose number, mean of 3 assays
Experimental: as §3
as §2, with “Dose response curves were generated using the CI at each dose.” left out

Compound | response to lapatinib treatment [1] | EC50 ([1]; Homo sapiens) [µM] | specimens non-responsive to lapatinib [2] [%] | specimens responsive to lapatinib [2] [%] | specimens with intermediate response to lapatinib [2] [%] | response to lapatinib treatment ([3]; 72 hours) | EC50 ([3]; Homo sapiens, BT-474, 72 hours) [µM] | response to lapatinib treatment [4] | EC50 ([4]; Homo sapiens) [µM] | response to lapatinib treatment ([5]; 72 hours) | EC50 ([5]; Homo sapiens, SK-OV-3, 72 hours) [µM] | specimens Intermediate Responsive to erlotinib [6] [%] | specimens Non-Responsive to erlotinib [6] [%] | specimens Responsive to erlotinib [6] [%] | Mean (Log EC50*) [7] [dose number] | Xenograft TGI (%) [22] [8] [%] | Mean (Log EC50*) [9] [dose number] | Xenograft TGI (%) [22] [10] [%] | Xenograft TGI (%) [22] [11] [%] | Mean (Log EC50*) [12] [dose number]
CS(=O)(=O)CCNCc1ccc(-c2ccc3ncnc(Nc4ccc(OCc5cccc(F)c5)c(Cl)c4)c3c2)o1 [lapatinib, Lapatinib] | responsive | ~10 | 76 | 9 | 15 | responsive | ~10 | responsive | ~10 | responsive | ~10 |  |  |  |  |  |  |  |  | 
C#Cc1cccc(Nc2ncnc3cc(OCCOC)c(OCCOC)cc23)c1 [erlotinib, Erlotinib hydrochloride] |  |  |  |  |  |  |  |  |  |  |  | 20.6 | 70.6 | 8.8 | 4.731 | 67 | 6.715 | 25 | 85 | 5.925
